US7619005B2, “Methods for treating cognitive impairment in humans with Multiple Sclerosis” (Cognition Pharmaceuticals LLC, priority 2000, dated 2009)

Columns and labels:
[1] = test system: normal subjects; assay: Phase I studies of l-methamphetamine: safety and tolerability
[2] = test system: normal subjects; assay: CDR computerized cognitive assessment system, l-methamphetamine
Procedure: A randomized, double-blind, placebo-controlled, dose escalation study in human subjects, who were not suffering from an impairment in a memory or cognitive process (“normal subjects”), was conducted to assess the safety, tolerability and pharmacokinetics and improvement in cognitive processes, including memory, following the administration of l-methamphetamine (25 mg, 50 mg, 100 mg, 150 mg).
A selection of tasks from the CDR computerized cognitive assessment system was administered and parallel forms of the tests were presented on each testing session. […] All tasks were computer-controlled, the information was presented on high resolution screens, and the responses recorded via a response module containing two buttons, one marked ‘NO’ and the other ‘YES’. The tracking task additionally involved the use of a joystick. The test battery takes about 20-25 minutes to perform. The tests were administered in the following order: • Picture Presentation: A series of 20 pictures was presented on the screen at the rate of 1 every 3 seconds for the subject to remember. No data were recorded from this task. • Simple Reaction Time: The subject was instructed to press the ‘YES’ response button as quickly as possible every time the word ‘YES’ is presented on the screen. […] A series of digits was then presented in the center of the screen at the rate of 150 per minute and the subject was required to press the ‘YES’ button as quickly as possible every time the digit in the series matches the target digit. There were 45 targets in the series. The task lasted for 3 minutes. • Choice Reaction Time: Either the word ‘NO’ or the word ‘YES’ was presented on the screen and the subject was instructed to press the corresponding button as quickly as possible. There were 50 trials for which each stimulus word was chosen randomly with equal probability and there was a varying inter-stimulus interval. • Rapid Visual Information Processing: A series of digits was presented on the screen at the rate of 100 per minute. The subject had to detect targets consisting of consecutive sequences of either three odd digits or three even digits, and to report them by pressing the ‘YES’ button as quickly as possible. There were 32 targets. The task lasted for 4 minutes. • Tracking: The subject used a joystick to track a randomly moving target on the screen for one minute. The distance off-target per second was recorded. • Spatial Working Memory: A picture of a house was presented on the screen with four of its nine windows lit. The subject had to memorize the position of the lit windows. For each of the 36 subsequent presentations of the house, the subject was required to decide whether or not the one window that was lit was also lit in the original presentation. […]

[3] = test system: Long-Evans rats; assay: Passive Avoidance test, injection immediately after training; settings: i.p. immediately after training; p values=0.007 (C105), 0.0004 (d-amphetamine), 0.03 (SN522)
[4] = test system: Long-Evans rats; assay: Locomotor activity, activity monitoring chambers; type: in vivo, rat
Procedure: Activity monitoring was conducted in a Plexiglas open-field box measuring 30 by 30 cm. […] The location of the animal within the cage was detected by breaks in the infrared light beams. Light beams status information was collected and rapidly analyzed by a computerized activity monitoring system (VersaMax System, Accuscan Instruments.)
In order to determine whether SN522 had any adverse effects on locomotor or exploratory activity, rats were injected with saline or 0.25, 0.5, 2.5 and 5.0 mg/kg of SN522 and immediately afterwards placed into the activity monitoring chambers for a period of three hours.

[5] = test system: Long-Evans rats; assay: Water Maze acquisition; type: in vivo, rat; settings: higher dose (0.5 mg/kg i.p.); p>0.05
Procedure: Water Maze testing (Morris, R., J. Neurosci Methods 11:47-60 (1984)) was conducted in a galvanized steel pool, painted white, measuring 180 cm in diameter and 60 cm in height. The pool was equipped with a removable circular platform (10 cm in diameter) made of clear Plexiglas. The pool was filled with water (26° C.) to a level of 1 cm above the surface of the platform. Nontoxic white paint was added to the water to obscure the platform's appearance. The pool was divided conceptually into four quadrants and the platform was located in the NW quadrant 30 cm from the pool wall. Extramaze cues were provided by large geometric shapes adhered to curtains that surrounded two sides of the pool, and by shelving units, a sink, and posters on the visible walls.
The training procedure involved placing the rat into the water, with the rat's head facing the wall of the pool, at one of four different starting points. The rat was allowed 60 seconds to locate the hidden platform. […] After 15 seconds spent on the platform at the end of each trial, the rat was removed from the pool and injected with saline or SN522 (0.25 and 0.5 mg/kg, i.p.). The rat was dried, and returned to its home cage. One trail was conducted each day for 10 days. The latency to reach the platform (escape latency) was recorded on each days training trial.

[6] = test system: scopolamine treated rats; assay: Passive Avoidance in scopolamine treated rats (memory impairment); type: in vivo, rat
[7] = test system: Long-Evans rats; assay: Tailflick test of analgesia (SN522); type: in vivo, rat; settings: 0.25, 0.5, 2.5 and 5.0 mg/kg i.p.; 15, 30, 60 minutes
Procedure: The tail-flick response was assessed using a radiant heat tail flick monitor (Accuscan Instruments model TFS) equipped with a radiant heat element and two light beam sensors to detect tail movement.
In order to determine whether SN522 has any analgesic properties, rats (n=10 per treatment group) were injected with saline or SN522 (0.25, 0.5, 2.5 and 5.0 mg/kg, i.p.) and tested at four time points: immediately prior to injection, and again 15, 30, and 60 minutes following drug administration for a tail flick response (D'Amour, F. E., et al., J. Pharmacol. Exp. Ther. 72:174-179 (1941)). To test the tail-flick, the animal was placed on top of the Tail-Flick monitor and gently held in place with a cotton towel. The tail of the animal was placed in a shallow groove lying between the two sensors and over the top of the radiant heat wire. The heat element was activated, and the latency for the animal to flick its tail out of the groove and away from the heat source was automatically recorded via activation of the sensors. The intensity of the heat source was adjusted so that the animal flicked its tail within 3-4 seconds. A 10 second cutoff was imposed to avoid tissue damage. The animal was returned to its home cage immediately following testing.

[8] = test system: normal subjects; assay: Phase I studies of l-methamphetamine: RAVLT word recall

Structure (SMILES): CN[C@H](C)Cc1ccccc1 [SN522, levo-methamphetamine]
- tolerability ([1]; 150 mg dose, a few subjects in the second Phase I trial): not well tolerated
- tolerability ([1]; first and second Phase I trials (1-100 mg)): generally well tolerated
- Picture Recognition-Sensitivity Index vs placebo ([2]; 25 mg (p=0.0177) and 150 mg (p=0.0254) (FIG. 36)): significant benefits
- Information Processing False Alarms vs placebo ([2]; 50 mg (p=0.0002), 100 mg (p=0.0001) and 150 mg (p=0.0001) (FIG. 38)): significant decrements against placebo
- Information Processing Targets Detected vs placebo ([2]; 100 mg (p=0.0002) and 150 mg (p=0.0001) (FIG. 37)): significant benefits
- speed of response (Total Speed score) ([2]; 25, 50, 100, 150 mg (FIG. 35)): dose-dependent effect on speed of response
- dose that significantly improved performance on the passive avoidance task [3]: 0.5 mg/kg
- activity relative to saline control ([4]; 0.5 mg/kg, p=0.028): only modest increases in activity
- motor behavior (FIG. 23 description) ([4]; 0.25 and 0.5 mg/kg ip): no or modest changes in motor behavior
- activity relative to saline control ([4]; 2.5 and 5.0 mg/kg, p<0.001): small, but significant increases in activity
- activity (FIG. 23 description) ([4]; doses ten times over the therapeutic doses (2.5, 5.0 mg/kg ip)): only mild increases in activity
- acquisition (escape latency) compared with saline group [5]: did not reveal any statistical differences
- performance vs animals treated with scopolamine and saline ([6]; 0.25, 0.5 and 1.0 mg/kg, p values=0.01, 0.04 and 0.007): performed significantly better than animals treated with scopolamine and saline
- alleviation of scopolamine impairment (step-through latency) ([6]; SN522 i.p. immediately after training, log rank p=0.02 (FIG. 32)): effective at alleviating the impairment in the scopolamine-injected animals
- pain sensitivity (tail flick latency) [7]: does not alter pain sensitivity
- RAVLT memory scores ([8]; first Phase I study (1, 4, 16, 32 mg)): No difference in memory scores
- RAVLT mean values vs placebo ([8]; second Phase I study (25, 50, 100 mg) (FIG. 34)): all dose groups have mean values greater than placebo at 30 minutes and 24 hours
